Measurements published in ChEMBL document CHEMBL5634119, “Design and synthesis of 4th generation EGFR inhibitors against human triple (Del19/T790M/C797S) mutation” (Eur J Med Chem, 2023).

Key:
[1] = Inhibition of wild type EGFR in mouse BAF3 cells assessed as reduction in cell proliferation incubated for 3 days by celltiter-glo assay; assay type: cell-based; conditions: BaF3, 72 h
[2] = Inhibition of EGFR del19/T790M/C797S triple mutant in mouse BAF3 cells assessed as reduction in cell proliferation incubated for 3 days by celltiter-glo assay; assay type: cell-based; conditions: BaF3, 72 h
[3] = Inhibition of ERK phosphorylation in human A-431 cells harboring wild type EGFR incubated for 6 hrs by Western blot analysis; assay type: cell-based; conditions: A-431, 6 h
[4] = Inhibition of ERK phosphorylation in human PC-9 cells harboring Del19/T790M/C797S mutant incubated for 6 hrs by Western blot analysis; assay type: cell-based; conditions: PC-9, 6 h
HCC827 = assay: Antiproliferative activity against human HCC827 cells harboring EGFR Del19 mutant incubated for 72 hrs by SRB assay; assay type: functional, cell-based; conditions: HCC827, 72 h
NCI-H1975 [5] = assay: Antiproliferative activity against human NCI-H1975 cells harboring EGFR L858R/T790M mutant incubated for 72 hrs by SRB assay; assay type: functional, cell-based; conditions: NCI-H1975, 72 h
NCI-H1975 [6] = assay: Antiproliferative activity against human NCI-H1975 cells harboring EGFR L858R/T790M/C797S mutant incubated for 72 hrs by SRB assay; assay type: functional, cell-based; conditions: NCI-H1975, 72 h
[7] = Inhibition of AKT phosphorylation in human A-431 cells harboring wild type EGFR incubated for 6 hrs by Western blot analysis; assay type: cell-based; conditions: A-431, 6 h
[8] = Inhibition of AKT phosphorylation in human PC-9 cells harboring Del19/T790M/C797S mutant incubated for 6 hrs by Western blot analysis; assay type: cell-based; conditions: PC-9, 6 h
A-431 = assay: Antiproliferative activity against human A-431 cells harboring wild type EGFR incubated for 72 hrs by SRB assay; assay type: functional, cell-based; conditions: A-431, 72 h
PC-9 = assay: Antiproliferative activity against human PC-9 cells harboring EGFR Del19/T790M/C797S mutant incubated for 72 hrs by SRB assay; assay type: functional, cell-based; conditions: PC-9, 72 h

Work on CN(c1ccccc1Nc1nc(Nc2ccc(N3CCC(N4CCN(C5CC5)CC4)CC3)c(F)c2)nc2[nH]ccc12)S(C)(=O)=O yielded an IC50 [1] of 815 nM and an IC50 [2] of 213 nM.

COc1cc(Nc2nc(Nc3ccccc3N(C)S(C)(=O)=O)c3cc[nH]c3n2)ccc1N1CCN(C)CC1 gave an IC50 [1] of 41.4 nM and an IC50 [2] of 36.7 nM.

Work on CN1CCN(c2ccc(Nc3nc(Nc4ccccc4NS(C)(=O)=O)c4cc[nH]c4n3)cc2F)CC1 yielded an IC50 [1] of 2640 nM and an IC50 [2] of 125 nM.

CC(C)N1CCN(C2CCN(c3ccc(Nc4nc(Nc5ccccc5N(C)S(C)(=O)=O)c5cc[nH]c5n4)cc3F)CC2)CC1 gave an IC50 [1] of 620 nM and an IC50 [2] of 82.4 nM.

For CN(c1ccccc1Nc1nc(Nc2ccc(N3CCN(C4CC4)CC3)c(F)c2)nc2[nH]ccc12)S(C)(=O)=O, the IC50 [1] was 790 nM and the IC50 [2] was 383 nM.

CC(C)S(=O)(=O)N(C)c1ccccc1Nc1nc(Nc2ccc(N3CCN(C)CC3)c(F)c2)nc2[nH]ccc12 showed an IC50 [1] of 185 nM and an IC50 [2] of 49 nM.

Compound Cc1cc(Nc2nc(Nc3ccccc3N(C)S(C)(=O)=O)c3cc[nH]c3n2)ccc1N1CCN(C)CC1 has an IC50 [1] of 41.7 nM and an IC50 [2] of 30.8 nM.

CCCN1CCN(C2CCN(c3ccc(Nc4nc(Nc5ccccc5N(C)S(C)(=O)=O)c5cc[nH]c5n4)cc3F)CC2)CC1 showed an IC50 [1] of 754 nM and an IC50 [2] of 84.2 nM.

Work on CCN(c1ccccc1Nc1nc(Nc2ccc(N3CCN(C)CC3)c(F)c2)nc2[nH]ccc12)S(C)(=O)=O yielded an IC50 [1] of 203 nM and an IC50 [2] of 36.6 nM.

CCCN1CCN(c2ccc(Nc3nc(Nc4ccccc4N(C)S(C)(=O)=O)c4cc[nH]c4n3)cc2F)CC1 gave an IC50 [1] of 687 nM and an IC50 [2] of 142 nM.

Compound CN1CCN(c2ccc(Nc3nc(Nc4ccccc4N(C)S(C)(=O)=O)c4cc[nH]c4n3)cc2)CC1 has an IC50 [1] of 120 nM and an IC50 [2] of 28.4 nM.

With CN1CCN(c2ccc(Nc3nc(Nc4ccccc4N(C)S(C)(=O)=O)c4cc[nH]c4n3)c(F)c2)CC1 the IC50 [1] was 202 nM and the IC50 [2] was 157 nM.

For COc1cc(N2CCC(N3CCN(C)CC3)CC2)ccc1Nc1ncc(Cl)c(Nc2ccccc2P(C)(C)=O)n1 [BRIGATINIB], the IC50 [3] was 5830 nM, the IC50 [4] was 3730 nM and the IC50 [1] was 782 nM. For the same compound, the IC50 (HCC827) was 282 nM, the IC50 [2] was 227 nM and the IC50 (NCI-H1975 [5]) was 380 nM. It also gave an IC50 (NCI-H1975 [6]) of 1130 nM, an IC50 [7] of 3330 nM and an IC50 [8] of 984 nM. For the same compound, the IC50 (A-431) was 540 nM and the IC50 (PC-9) was 838 nM.

With C=CC(=O)Nc1cc(Nc2nccc(-c3cn(C)c4ccccc34)n2)c(OC)cc1N(C)CCN(C)C [OSIMERTINIB] the IC50 [1] was 13.5 nM and the IC50 [2] was 1240 nM.
